Source: patent publication US20230391727A1, “ANALOGUES OF PENTAMIDINE AND METHODS FOR TREATING INFECTIONS” (Auransa Inc., priority 2020, published 2023)
Values after ≈ are worked out from the molar mass of the structure shown.

Assays:
NCI H69 cells = experiment: CellTiter-Glo cell viability assay (cytotoxicity), 8 days; format: cell-based; conditions: Homo sapiens, 192 h, full growth media
Procedure: The experiment tested pentamidine, Compounds 1-6 in full growth media for 8 days. NCI H69 cells were initially treated with the test compounds on Day 0, and the cells were then replenished with fresh compound dilutions on Day 3. Pentamidine and Compound 1 were tested at 9 concentration points: 100 μM, 33.33 μM, 11.11 μM, 3.70 μM, 1.23 μM, […], 0.05 μM, and 0.02 μM (final DMSO concentration=0.5%). The raw data values from the CellTiter-Glo™ cell viability assay expressed in relative luminescence units were normalized to the vehicle for each individual plate, and any reduction in luminescence indicated a decrease in viability (%). The data was analyzed in GraphPad PRISM using a non-linear sigmoidal plot with variable slope (asymmetric four-point […]), and an IC50 value for each compound was generated based on the normalized dose-response curves and shown in Table 1.

S. aureus ATCC 27660 = experiment: MIC assay against gram positive S. aureus; format: cell-based; conditions: Staphylococcus aureus, ATCC27660
Procedure: (§1) Then the compound stocks were serially 2-fold diluted in a v-bottom 96-well plate to make 100-fold working solutions. One day before the test, −80° C. glycerol stock of S. aureus strains were streaked on cation-adjusted Mueller-Hinton agar (CAMHA) plates. On the day of test, fresh bacterial colonies were suspended into sterile saline to an OD600 nm of ˜0.1 (equivalent to 0.5 McFarland). The bacterial suspension was firstly 20-fold followed by 50-fold diluted in cation-adjusted Mueller-Hinton broth (CAMHB) plates to 1×10^6 CFU/PO. 198 ul of the inoculum was added into the round-bottom 96-well plates prefilled with 2 ul of 100-fold compound working solutions. After incubating at 35 +/−2° C. in ambient atmosphere for 18-24 h, MIC was recorded as the lowest concentration under which no visible bacterial growth was observed.

S. aureus ATCC 43300 = experiment: MIC assay against gram positive S. aureus; format: cell-based; conditions: Staphylococcus aureus, ATCC43300
Procedure: as §1

S. aureus VRS-2 = S. aureus VRS-2 peritonitis infection model; format: in vivo, female ICR mice
Procedure: The efficacy of compound 3 was evaluated in the S. aureus VRS-2 peritonitis infection model. The test article, compound 3 at 0.1, 0.3 and 1 mg/kg, was intraperitoneally (IP) administered twice at 2 and 16 h after infection; as well as once at 2 mg/kg at 2 h post-infection. The control reference agent, linezolid at 50 mg/kg, was orally (PO) administered once at 1 h post-infection. […] All animals in the vehicle group succumbed to infection between Day 1 to Day 2, resulting in 100% mortality, and a mean 15 h survival time. […] In the compound 3 at 1 mg/kg IP BID dose group, one out of eight animals survived till Day 7 of the study period, resulting in 13% survival rate, and a mean 33 h survival time.
For efficacy testing, the 0.4 mg/mL compound 3 solution was prepared by dissolving 1.21 mg of compound 3, corresponding to active ingredient of 1.02 mg with a correction factor of 1.19, in 2.55 mL of WFI. The 0.4 mg/mL compound 3 working solution was further diluted with WFI to generate three lower dosing solutions of 0.2, 0.06 and 0.02 mg/mL. All dosing solutions were soluble and colorless.
PDS supplied vancomycin and linezolid as reference controls for both MIC and in vivo studies. […] The 3.2 mg/mL linezolid 50× stock solution was prepared by dissolving 1.0 mg of linezolid in 0.313 mL of DMSO. Both solutions were colorless and soluble. For efficacy testing, one tablet of linezolid, at 600 mg, was dissolved in 12 mL of 1% Tween 80 in saline (0.9% NaCl) to generate a 50 mg/mL of stock solution. The 50 mg/mL linezolid stock solution was further diluted with 1% Tween 80 in 0.9% NaCl to generate the dosing solution of 5 mg/mL. Both solutions were insoluble with white color.
The S. aureus strain VRS-2 peritonitis infection model was performed with immunocompetent female ICR mice, weighing 22±2 g. All animals were specific pathogen free. The PDS standard protocol for preparing S. aureus cultures for mouse infection studies was followed. A 0.2 mL aliquot of a single-use glycerol stock (at −80° C.) was used to seed […] heart infusion (BHI) and then incubated at 35-37° C. with shaking (250 rpm) for 8 h. Bacterial cells in the 20 mL was pelleted by centrifugation (3,500×g) for 15 minutes, and then re-suspended in 10 mL cold phosphate buffer saline (PBS). The optical density, OD620 nm, was measured and used to guide dilution. The PBS suspensions were stored on ice for no more than 1 h prior to animal inoculation. The dilutions were performed by 1:1 dilution of BHI broth containing hog gastric mucin to obtain the target inoculum density, 1×10^8 CFU/mouse, per 0.5 mL with 5% mucin (final concentration). The actual colony count was determined by plating dilutions to nutrient agar (NA) plates followed by 20-24 h incubation at 35-37° C.
On Day 0, animals were infected with bacterial suspension with 5% mucin by intraperitoneal injection. The actual inoculum was 1.93×10^8 CFU/mouse with a target inoculum of 1×10^8 CFU/mouse in the peritonitis infection model. Test article, compound 3, was formulated in WFI and intraperitoneally (IP) administered with the dose schedule and concentrations indicated in the study design. Doses were administered once at 2 h post-infection or twice (BID) at 2 and 16 h post-infection. The animals were monitored for survival up to 7 days, twice daily (AM 9:00/PM 17:00). […]
Animals were monitored for mortality twice daily (AM 9:00/PM 17:00) for 7 days after infection. […]

`N=C(N)c1ccc(CC[C@H]2CCC[C@@H](CCc3ccc(C(=N)N)cc3)C2)cc1` [Compound 3, 4,4′-(2,2′-((1R,3S)-cyclohexane-1,3-diyl)bis(ethane-2,1-diyl))dibenzimidamide] was tested, and the IC50 (NCI H69 cells) was 0.8 µM, the MIC (S. aureus ATCC 27660) was 0.5 µg/mL (≈ 1.33 µM) and the MIC (S. aureus ATCC 43300) was 0.5 µg/mL (≈ 1.33 µM). The mean survival time (S. aureus VRS-2; 1 mg/kg IP BID (2 and 16 h after infection)) was 33 h, the survival rate (S. aureus VRS-2; 1 mg/kg IP BID (2 and 16 h after infection), Day 7) was 13% and the mortality (S. aureus VRS-2; 0.1 and 0.3 mg/kg IP BID, and single dose of 2 mg/kg) was 100%.
